The source of these data is patent US20050197350A1, “Novel quinoline, tetrahydroquinazoline, and pyrimidine derivatives and methods of treatment related to the use thereof” (TAISHO PHARMACEUTICAL CO., LTD., priority 2003, published 2005).

One experiment relates to MCH receptors. Put plainly: MCH receptor activity class (method not given).
Conditions: not given
Take `Cc1cc(N[C@H]2CC[C@@H](NC(=O)Nc3cccc(Oc4ccccc4)c3)CC2)nc2ccccc12` [Example 2560, N-{cis-4-[(4-methylquinolin-2-yl)amino]cyclohexyl}-N′-(3-phenoxyphenyl)urea]: the class was determined as 2.
For `Cc1cc(N[C@H]2CC[C@@H](NC(=O)Nc3ccc(OCc4ccccc4)cc3)CC2)nc2ccccc12` [Example 2558, N-[4-(benzyloxy)phenyl]-N′-{cis-4-[(4-methylquinolin-2-yl)amino]cyclohexyl}urea], the class was 2.

Still in this experiment, the particulars now being: MCH receptor activity class 1-3 (percent of control at 10^-7 M or IC50).
In the case of `Cc1ccc(NC(=S)N[C@H]2CC[C@@H](Nc3nccc(N(C)C)n3)CC2)c(C)c1` [compound 2321], the class is recorded as 3 (Class 3 The value of percent of control at 10^−7 M was more than 60% or the value of IC50 was more than 200 nM.).
The same measure, in the same setting: to `COc1ccc(C)cc1NC(=O)NC[C@H]1CC[C@@H](Nc2cc(N(C)C)c3ccccc3n2)CC1` [compound 2400] belongs 3 (Class 3 The value of percent of control at 10^−7 M was more than 60% or the value of IC50 was more than 200 nM.).
For `C[C@@H](NC(=S)N[C@H]1CC[C@@H](Nc2nccc(N(C)C)n2)CC1)c1ccccc1` [compound 2343], the class is recorded as 3 (Class 3 The value of percent of control at 10^−7 M was more than 60% or the value of IC50 was more than 200 nM.).

Staying with this experiment, now noted: MCH receptor; class by percent of control at 10^-7 M or IC50.
As to `COc1cccc(NC(=S)N[C@H]2CC[C@@H](Nc3nc4c(c(N(C)C)n3)CCCC4)CC2)c1` [compound 1986], the class was 3 (Class 3 The value of percent of control at 10^−7 M was more than 60% or the value of IC50 was more than 200 nM.).
Turning to `CC(C)c1cccc(C(C)C)c1NC(=S)N[C@H]1CC[C@@H](Nc2nc3c(c(N(C)C)n2)CCCC3)CC1` [compound 2002], the class is recorded as 3 (Class 3 The value of percent of control at 10^−7 M was more than 60% or the value of IC50 was more than 200 nM.).
On the same count and under the same terms, to `Cc1cc(=O)oc2c(OCC(=O)N[C@H]3CC[C@@H](Nc4cc(N(C)C)c5ccccc5n4)CC3)cccc12` [compound 145] belongs 3 (Class 3 The value of percent of control at 10^−7 M was more than 60% or the value of IC50 was more than 200 nM.); to `Cc1ccc(C(=O)N[C@H]2CC[C@@H](Nc3cc(N(C)C)c4ccccc4n3)CC2)cc1F` [compound 74, N-(cis-4-{[4-(dimethylamino)quinolin-2-yl]amino}cyclohexyl)-3-fluoro-4-methylbenzamide], 2 (Class 2: The value of percent of control at 10^−7 M was from 40% to 60% or the value of IC′50 was from 50 nM to 200 nM.); to `CN(C)c1cc(N[C@H]2CC[C@@H](NC(=O)c3cccnc3Sc3ccccc3)CC2)nc2ccccc12` [compound 136], 3 (Class 3 The value of percent of control at 10^−7 M was more than 60% or the value of IC50 was more than 200 nM.).
On the same count and under the same terms, to `CN(C)c1nc(N[C@H]2CC[C@@H](NC(=S)Nc3ccc(Oc4ccc([N+](=O)[O-])cc4)cc3)CC2)nc2c1CCCC2` [compound 2049] belongs 3 (Class 3 The value of percent of control at 10^−7 M was more than 60% or the value of IC50 was more than 200 nM.); to `Cc1onc(-c2c(F)cccc2Cl)c1C(=O)N[C@H]1CC[C@@H](Nc2cc(N(C)C)c3ccccc3n2)CC1` [compound 100, 3-(2-chloro-6-fluorophenyl)-N-(cis-4-{[4-(dimethylamino)quinolin-2-yl]amino}cyclohexyl)-5-methylisoxazole-4-carboxamide], 1 (Class 1: The value of percent of control at 10^−7 M was less than 40% or the value of IC50 was less than 50 nM.); to `CN(C)c1nc(N[C@H]2CC[C@@H](NC(=S)Nc3ccc(Cl)c(C(F)(F)F)c3)CC2)nc2c1CCCC2` [compound 1992], 3 (Class 3 The value of percent of control at 10^−7 M was more than 60% or the value of IC50 was more than 200 nM.).

Staying with this experiment, now noted: activity class 1-3: percent of control at 10^-7 M or IC50.
For `CCOC(=O)[C@H](CC(C)C)NC(=O)N[C@H]1CC[C@@H](Nc2nc3c(c(N(C)C)n2)CCCC3)CC1` (relative stereo) [compound 1663], the class is listed as 3 (Class 3 The value of percent of control at 10^−7 M was more than 60% or the value of IC50 was more than 200 nM.).

Staying with this experiment, now noted: activity class per percent of control at 10^-7 M or IC50.
Consider `CCSC(C(=O)N[C@H]1CC[C@@H](Nc2nc3c(c(N(C)C)n2)CCCC3)CC1)(c1ccccc1)c1ccccc1` [compound 1010], for which the class is reported as 2 (Class 2: The value of percent of control at 10^−7 M was from 40% to 60% or the value of IC′50 was from 50 nM to 200 nM.).
Still for that read-out and setting: as for `Cc1ccc(C(=O)CC(C(=O)N[C@H]2CC[C@@H](Nc3nc4c(c(N(C)C)n3)CCCC4)CC2)c2cn(C)c3ccccc23)cc1` (relative stereo) [compound 998], the figure is 2 (Class 2: The value of percent of control at 10^−7 M was from 40% to 60% or the value of IC′50 was from 50 nM to 200 nM.).
`COc1cc(CN[C@H]2CC[C@@H](Nc3cc(N(C)C)c4ccccc4n3)CC2)ccc1O` [compound 1120]: the class is 3 (Class 3 The value of percent of control at 10^−7 M was more than 60% or the value of IC50 was more than 200 nM.).

Still in this experiment, the particulars now being: class by percent of control at 10^-7 M or IC50.
As for `CN(C)c1nc(N[C@H]2CC[C@@H](NC(=O)Nc3ccc([N+](=O)[O-])cc3Cl)CC2)nc2c1CCCC2` [compound 1854], the class is 3 (Class 3 The value of percent of control at 10^−7 M was more than 60% or the value of IC50 was more than 200 nM.).
Same read-out and setting: to `CN(C)c1ccnc(N[C@H]2CC[C@@H](CNC(=O)c3cc(F)cc(F)c3)CC2)n1` [compound 379] belongs 3 (Class 3 The value of percent of control at 10^−7 M was more than 60% or the value of IC50 was more than 200 nM.); to `CN(C)c1nc(N[C@H]2CC[C@@H](NC(=O)NC3CCCCC3)CC2)nc2c1CCCC2` [compound 1816], 3 (Class 3 The value of percent of control at 10^−7 M was more than 60% or the value of IC50 was more than 200 nM.); to `CN(C)c1nc(N[C@H]2CC[C@@H](NC(=O)C(Cc3ccccc3)c3ccccc3)CC2)nc2c1CCCC2` (relative stereo) [compound 954], 2 (Class 2: The value of percent of control at 10^−7 M was from 40% to 60% or the value of IC′50 was from 50 nM to 200 nM.).
Still for that read-out and setting: as for `CN(C)c1nc(N[C@H]2CC[C@@H](NC(=O)Nc3ccc(SC(F)(F)F)cc3)CC2)nc2c1CCCC2` [compound 1879], the figure is 3 (Class 3 The value of percent of control at 10^−7 M was more than 60% or the value of IC50 was more than 200 nM.); as for `CN(C)c1nc(N[C@H]2CC[C@@H](CNC(=O)Nc3cc(F)cc(F)c3)CC2)nc2c1CCCC2` [compound 2495], 3 (Class 3 The value of percent of control at 10^−7 M was more than 60% or the value of IC50 was more than 200 nM.); as for `CN(C)c1ccnc(N[C@H]2CC[C@@H](CNC(=O)OCc3ccccc3)CC2)n1` [compound 400], 3 (Class 3 The value of percent of control at 10^−7 M was more than 60% or the value of IC50 was more than 200 nM.).
Same read-out and setting: to `Cc1cc(Cl)ccc1NC(=O)N[C@H]1CC[C@@H](Nc2nccc(N(C)C)n2)CC1` [compound 2244, N-(4-chloro-2-methylphenyl)-N′-(cis-4-{[4-(dimethylamino)pyrimidin-2-yl]amino}cyclohexyl)urea] belongs 2 (Class 2: The value of percent of control at 10^−7 M was from 40% to 60% or the value of IC′50 was from 50 nM to 200 nM.); to `COc1cccc(CN[C@H]2CC[C@@H](Nc3nc4c(c(N(C)C)n3)CCCC4)CC2)c1` [compound 1345], 3 (Class 3 The value of percent of control at 10^−7 M was more than 60% or the value of IC50 was more than 200 nM.).
